Results reported in patent US5098900A, “3(2H)pyridazinone, process for its preparation and anti-allergic agent containing it” (Nissan Chemical Industries Ltd., priority 1984, dated 1992).
Like-named read-outs stand apart in the source and are kept apart here.

Columns and labels:
SRS-A = SRS-A antagonism in guinea-pig ileum (SRS-A-induced contraction); format: cell-based; conditions: 1 min, test compound 5×10^-7 g/ml, isolated guinea-pig ileum; for inhibition at 0.5 µg/mL: Cavia porcellus
Experimental: (i) SRS-A antagonism in quinea-pig ileum
SRS-A antagonism was determined against the contraction induced by SRS-A in isolated guinea-pig ileum. The SRS-A was prepared in accordance with the method of Brocklehurst (J. Physiol., 151, 416, 1960) and Kohno and Parker (J. Immunol., 125, 446, 1980). Adult male guinea-pigs (200-250 g) were sensitized with chick egg albumin (EA), 100 mg subcutaneously and 100 mg intraperitoneally. Three weeks later the animals were killed by a blow on the head and lungs were perfused free of blood with Tyrode solution passed through the right ventricle. Isolated lungs were chopped into pieces (1 mm^3) by a scissors in Tyrode solution and filtrated with gauze, and then 1.0-1.3 g of chopped lung fragments were distributed into individual tubes (9.7 ml of Tyrode solution/tube). EA solution (0.3 ml) at a 3×10^-4 g/ml final concentration was added to the tubes and incubated for 20 min at 37° C., and then the supernatant was used for the SRS-A antagonism.
Assay for SRS-A antagonism was performed as follows: Ileum preparations isolated from male guinea-pig (300-400 g) were suspended under 0.5 g tension in organ baths (5 ml) containing Tyrode solution maintained at 30° C. and gassed with 95% O2 +5% CO2. After the repeated responses to histamine (10^-7 g/ml) was established, the contractile response to SRS-A (0.5 ml) was carried out in the presence of 10^-6 M atropine and 10^-6 M pyrilamine. Test compounds dissolved in 100% dimethyl sulfoxide were added to the organ baths (final concentration of 5×10^-7 g/ml) 1 min prior to the SRS-A addition, and SRS-A-induced contractions were compared with those of control (SRS-A-induced contraction before the treatment). The SRS-A antagonism (%) =[1.0 - (SRS-A-induced contraction in test compound)/control]×100

LTC4 = LTC4 antagonism in isolated guinea-pig trachea (LTC4-induced contraction); format: cell-based; conditions: Cavia porcellus, 5 min, read-out: LTC4 antagonism
Experimental: (ii) LTC4 and LTD4 antagonisms in guinea-pig trachea
Antagonism for LTC4 and LTD4 were determined in isolated guinea-pig trachea prepared as spiral strip. 10 Tracheal preparations were suspended under 1 g tension in […] and they were incubated for 1 hr prior to use. Contractile responses to LTC4 (2×10^-8 g/ml) and LTD4 (2×10^-8 g/ml) were obtained after the maximal response to histamine (10^-4 M). Test compounds dissolved in 100% dimethyl sulfoxide were added to the organ baths (final concentration of 10^-5 g/ml) 5 min prior to LTC4 and LTD4 addition, and then contractile responses to LTC4 and LTD4 were compared with those of control which was obtained from a paired trachea in the absence of test compounds. LTC4 - and LTD4 -induced contractions were expressed as a percentage of the maximal response to histamine. The antagonism was determined as follows: Antagonism (%)=(1.0-% contraction in test/% contraction in control)×100

ddY strain male mice = experiment: Acute toxicity test, method-(1), oral administration; format: in vivo; conditions: 300 mg/kg, P.O., 7 days after administration
Experimental: The lethal ratio was determined in ddY strain male mice (4 weeks old) at 7 days after the oral administration of test compounds.

[1] = test system: antigen-induced anaphylactic bronchoconstriction; experiment: Effect on anaphylactic bronchoconstriction in passively sensitized guinea-pig; format: in vivo; conditions: 2 mg/kg, i.v.
Experimental: (iii) Effect on anaphylactic bronchoconstriction in passively sensitized guinea-pig
Male guinea-pigs (350-450 g) were passively sensitized with intravenous (i.v.) injection of 0.125 ml rabbit anti-EA serum (Cappel Laboratories) 1 day preceding the experiment. […] The right jugular vein was cannulated for the administration of the all agents and trachea was cannulated to record total pulmonary resistance. Guinea-pigs were artificially ventilated by a small animal respirator (Shinano, Model SN-480-7) set at a stroke volume of 4-5 ml and a rate of 50 breaths per min. […] The increase in air overflow volume was expressed as a percentage of the maximum bronchoconstriction obtained by clamping off the trachea. Following surgical preparation, the animals were pretreated with indomethacin (1.0 mg/kg, 10 min), pyrilamine (2 mg/kg, 6 min) and propranolol (0.1 mg/kg, 5 min) prior to the EA challenge (0.1 or 10 mg/kg). All test compounds, 2 mg/kg in 3% Tween 80 or 3% PEG-400, were administered 1 min before the EA challenge. Inhibition (%) of bronchoconstriction was determined as follows Inhibition (%)=(1.0% -maximum bronchoconstriction in test/% maximum bronchoconstriction in control) ×100.
In the Table, the dose of EA was 10 mg/kg, and each compound was dissolved or suspended in 3% Tween 80.
In the Table, the dose of EA was 0.1 mg/kg.
*: PEG represents polyethylene glycol400.

LTD4 [2] = experiment: Effect on bronchoconstriction induced by intravenous administration of LTD4; format: in vivo, guinea-pig; conditions: 2 mg/kg, i.v., in Tween 80; LTD4 2 μg/kg i.v.
Experimental: (iv) Effect on bronchoconstriction induced by intravenous (i.v.) administration of LTD4
Bronchoconstrictions induced by i.v. administration of LTD4 in guinea-pigs (350-450 g) were measured as described in anaphylactic bronchoconstriction. Guinea-pigs were anaesthetized with urethane (1.5 g/kg) and the trachea was cannulated to record total pulmonary resistance. The right jugular vein was cannulated for the administration of the all agents. The guinea-pigs were artificially ventilated by a small respirator set at a stroke volume of 5 ml and a rate of 50 breaths per min. LTD4 (2 μg/kg)-induced bronchoconstriction was shown by the increase in air overflow volume. After the response to histamine (5 μg/kg) was checked, the first response to LTD4 was obtain-d as control. […] Inhibition (%) of the bronchoconstriction was determined as follows: Inhibition (%) =(1.0 -peak value in the second response/peak value in the first response)×100.

LTD4 [3] = experiment: LTD4 antagonism in isolated guinea-pig trachea (LTD4-induced contraction); format: cell-based; conditions: Cavia porcellus, 5 min, test compound 10^-5 g/ml, LTD4 2×10^-8 g/ml
How it was run: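 Spiral strips of isolated guinea-pig trachea were held at 1 g tension in organ baths and incubated for 1 hr. After a maximal histamine (10^-4 M) response, test compounds in 100% dimethyl sulfoxide were added 5 min before LTD4 (2×10^-8 g/ml). Contraction, as percent of histamine maximum, was compared with a paired untreated control trachea to give antagonism (%).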

[4] = test compound 10^-5 g/ml, LTC4 2×10^-8 g/ml, guinea-pig trachea

Structure (SMILES) | inhibition at 0.5 µg/mL (SRS-A) [%] | inhibition at 10 µg/mL (LTC4; [4]) [%] | Lethal ratio (ddY strain male mice) | Inhibition of anaphylactic bronchoconstriction ([1]; EA 10 mg/kg, 3% Tween 80) [%] | SRS-A antagonism (SRS-A) [%] | Inhibition of LTD4-induced bronchoconstriction (LTD4 [2]) [%] | inhibition at 10 µg/mL (LTD4 [3]) [%] | Inhibition of anaphylactic bronchoconstriction ([1]; EA 0.1 mg/kg, Tween 80) [%] | inhibition at 10 µg/mL (LTC4) [%]
CCc1ccc(CNc2cnn(C(C)(C)C)c(=O)c2Cl)cc1 [Compound No. 4] | 73 | 55 | 0/3 | – | – | – | – | – | –
CCOc1ccc(CNc2cnn(C(C)(C)C)c(=O)c2Cl)cc1 [Compound No. 10] | 40 | 50 | 0/3 | 31 | – | – | – | – | –
CN(C)c1ccc(CNc2cnn(C(C)(C)C)c(=O)c2Cl)cc1.Cl [Compound No. 44, 4-Chloro-5-(4-dimethylaminobenzylamino)-2-t-butyl-3-(2H)pyridazinone hydrochloride] | – | – | – | 72 | 55 | 72.5 | – | – | –
CCCc1c(OCC(O)COc2ccc3c(=O)cc(C(=O)O)oc3c2CCC)ccc(C(C)=O)c1O (stereo not shown) [FPL-55712, reference compound] | 88 | – | – | 27 | – | 100 | 88 | 60 | 100
